Assay results reported in ChEMBL document CHEMBL1159276, “Sinugibberol, a new cytotoxic cembranoid diterpene from the soft coral Sinularia gibberosa” (1995).
In brackets after ≈: the same amount, converted by molar mass.

Key:
HT-29 = assay: Cytotoxicity against human HT-29 cells after 6 days by MTT method; assay type: functional; settings: HT-29, 144 h, read-out: ED50 (the source's name)
P388 = assay: Cytotoxicity against mouse P388 cells by MTT method; assay type: functional; settings: read-out: ED50 (the source's name)

**Q.** With `C/C1=C\CC[C@@]2(C)O[C@@H]2/C=C(/C(C)(C)O)CC[C@@]2(C)O[C@@H]2CC1` [SINUGIBBEROL] as the compound, how does the EC50 (HT-29) read?
**A.** Its EC50 is 0.5 µg/mL (≈ 1.56 µM).

**Q.** What about the EC50 (P388) of the same compound?
**A.** The EC50 was 11.7 µg/mL (≈ 36.5 µM).
